BindingDB's records for doi:10.1021/acs.jmedchem.1c00779 (Hong Kong Polytechnic University, 2021)

Experiments:
[1] = Inhibition of BCRP (unknown origin) transfected in HEK293/R2 cells assessed as reversal of topotecan resistance after 5 days by MTS/PMS assay
[2] = Inhibition of P-gp (unknown origin) expressed in human LCC6MDR cells assessed as reversal of paclitaxel resistance after 5 days by MTS/PMS assay
[3] = Inhibition of MRP1 (unknown origin) expressed in human 2008/MRP1 cells assessed as reversal of doxorubicin resistance after 5 days by MTS/PMS assay
[4] = Inhibition of BCRP (unknown origin) expressed in MCF7/MX100 cells assessed as reversal of topotecan resistance after 5 days by MTS/PMS assay
[5] = Inhibition of BCRP (unknown origin) expressed in human HEK293/R2 cells assessed as reversal of mitoxantrone resistance after 5 days by MTS/PMS assay
[6] = Inhibition of MRP1 (unknown origin) expressed in human 2008/MRP1 cells assessed as reversal of mitoxantrone resistance after 5 days by MTS/PMS assay
[7] = Inhibition of P-gp (unknown origin) expressed in human LCC6MDR cells assessed as reversal of mitoxantrone resistance after 5 days by MTS/PMS assay

| SMILES | EC50 [1] [nM] | other results |
| --- | --- | --- |
| COC(=O)c1cccc(COc2c(-c3ccc(OCCOCCn4cc(-c5cccc(-c6cn(CCOCCOc7ccc(-c8oc9ccccc9c(=O)c8OCc8cccc(C(=O)OC)c8)cc7)nn6)c5)nn4)cc3)oc3ccccc3c2=O)c1 | 2.5 | – |
| C#CCCCOc1ccc(-c2cc(=O)c3ccccc3o2)cc1 | > 1000 | – |
| C#CCCCOc1ccc2c(=O)cc(-c3ccccc3)oc2c1 | > 1000 | – |
| C#CCCCOc1ccc(-c2cc(=O)c3c(OCc4ccccc4)cc(OCOC)cc3o2)cc1 | 201 | – |
| C#CCCCOc1ccc(-c2cc(=O)c3cc(C)ccc3o2)cc1 | > 1000 | – |
| C#CCCCCOc1ccc(/C=C/C(=O)c2cc(C)ccc2O)cc1 | > 1000 | – |
| C#CCCCCOc1ccc(/C=C/C(=O)c2ccc(F)cc2O)cc1 | > 1000 | – |
| C#CCCCCOc1ccc2c(=O)cc(-c3ccccc3)oc2c1 | > 1000 | – |
| C#CCN(CC#C)CC#C | > 1000 | – |
| C#CCN(Cc1ccccc1)Cc1ccccc1 | > 1000 | – |
| C#CCCCCOc1ccc(-c2oc3ccccc3c(=O)c2OCc2cccc(C(=O)OC)c2)cc1 | 44 | EC50 [2]: 821 nM; EC50 [3]: > 1000 nM; EC50 [4]: 34 nM |
| C#CCCCOc1ccc(-c2cc(=O)c3cc(F)ccc3o2)cc1 | 417 | – |
| O=c1cc(-c2ccccc2)oc2cc(OCCNCc3ccccc3)ccc12 | > 1000 | – |
| COC(=O)c1cccc(COc2c(-c3ccc(OCCOCCN=[N+]=[N-])cc3)oc3ccccc3c2=O)c1 | – | EC50 [2]: > 1000 nM; EC50 [3]: > 1000 nM; EC50 [4]: 50 nM |
| COC(=O)c1cccc(COc2c(-c3ccc(OCCOCCOCCN=[N+]=[N-])cc3)oc3ccccc3c2=O)c1 | – | EC50 [2]: 298 nM; EC50 [3]: > 1000 nM; EC50 [4]: 17 nM |
| COC(=O)c1cccc(COc2c(-c3ccc(OCCCCc4cn(CCOCCO)nn4)cc3)oc3ccccc3c2=O)c1 | 10 | EC50 [2]: 606 nM; EC50 [3]: > 1000 nM; EC50 [4]: 27 nM |
| COC(=O)c1cccc(COc2c(-c3ccc(OCCCCc4cn(Cc5ccccc5)nn4)cc3)oc3ccccc3c2=O)c1 | 7 | EC50 [2]: 670 nM; EC50 [5]: 13 nM; EC50 [3]: > 1000 nM; EC50 [6]: 886 nM; EC50 [7]: 673 nM; EC50 [4]: 6 nM |
| COC(=O)c1cccc(COc2c(-c3ccc(OCCOCCn4cc(CN(C)Cc5ccccc5)nn4)cc3)oc3ccccc3c2=O)c1 | 15 | EC50 [2]: > 1000 nM; EC50 [5]: 17 nM; EC50 [3]: > 1000 nM; EC50 [6]: 681 nM; EC50 [7]: 644 nM; EC50 [4]: 3.5 nM |
| COC(=O)c1cccc(COc2c(-c3ccc(OCCOCCn4cc(CCN5C(=O)c6ccccc6C5=O)nn4)cc3)oc3ccccc3c2=O)c1 | 46 | EC50 [2]: > 1000 nM; EC50 [3]: > 1000 nM; EC50 [4]: 97 nM |
| COC(=O)c1cccc(COc2c(-c3ccc(OCCOCCOCCn4cc(CCCCOc5ccc(C=O)cc5)nn4)cc3)oc3ccccc3c2=O)c1 | 19 | EC50 [2]: > 1000 nM; EC50 [3]: 865 nM; EC50 [4]: 38 nM |
| COC(=O)c1cccc(COc2c(-c3ccc(OCCOCCOCCn4cc(CN(CCO)Cc5ccccc5)nn4)cc3)oc3ccccc3c2=O)c1 | 1.4 | EC50 [2]: 309 nM; EC50 [5]: 165 nM; EC50 [3]: > 1000 nM; EC50 [6]: 592 nM; EC50 [7]: 817 nM; EC50 [4]: 1.6 nM |
| [N-]=[N+]=NCCOCCOc1ccc(-c2cc(=O)c3ccccc3o2)cc1 | 365 | – |
| [N-]=[N+]=NCCOCCOCCOc1ccc(-c2cc(=O)c3ccccc3o2)cc1 | 363 | – |
| Cc1ccc2oc(-c3ccc(OCCOCCOCCN=[N+]=[N-])cc3)cc(=O)c2c1 | 750 | – |
| [N-]=[N+]=NCCOCCOc1ccc(-c2cc(=O)c3cc(F)ccc3o2)cc1 | 840 | – |
| [N-]=[N+]=NCCOCCOc1ccc(-c2oc3ccccc3c(=O)c2OCc2ccccc2)cc1 | 45 | – |
| [N-]=[N+]=NCCOCCOc1ccc2c(=O)cc(-c3ccccc3)oc2c1 | 223 | – |
| [N-]=[N+]=NCCOCCOCCOc1ccc2c(=O)cc(-c3ccccc3)oc2c1 | 177 | – |
| [N-]=[N+]=NCCOCCO | > 1000 | – |
| C#CCN(C)Cc1ccccc1 [N-benzyl-N-methylprop-2-yn-1-amine] | > 1000 | – |

More lines, main results first:

| EC50 [1] [nM] | SMILES | other results |
| --- | --- | --- |
| 325 | C#CCCCOc1ccc(-c2cc(=O)c3ccc(F)cc3o2)cc1 | – |
| > 1000 | C#CCCCCOc1ccc(/C=C/C(=O)c2ccccc2O)cc1 | – |
| > 1000 | C#CCCCCOc1ccc(/C=C/C(=O)c2cc(CC)ccc2O)cc1 | – |
| > 1000 | C#CCCCCOc1ccc(/C=C/C(=O)c2ccc(C)cc2O)cc1 | – |
| > 1000 | C#CCCCOc1ccc(-c2nc3ccccc3c(=O)[nH]2)cc1 | – |
| > 1000 | C#CCOCCOc1ccc2c(=O)cc(-c3ccccc3)oc2c1 | – |
| > 1000 | C#CCN(CCOc1ccc2c(=O)cc(-c3ccccc3)oc2c1)Cc1ccccc1 | – |
| > 1000 | C#CCCN1C(=O)c2ccccc2C1=O | – |
| > 1000 | C#CCNc1ccccc1 | – |
| > 1000 | C#CCCCCOc1ccc(C=O)cc1 | – |
| 261 | C#CCCCCOc1ccc(-c2oc3ccccc3c(=O)c2OCc2cccc(OC)c2)cc1 | – |
| 240 | C#CCCCCOc1ccc(-c2cc(=O)c3cc(F)ccc3o2)cc1 | – |
| 32 | COC(=O)c1cccc(COc2c(-c3ccc(OCCOCCn4cc(CN(Cc5ccccc5)Cc5ccccc5)nn4)cc3)oc3ccccc3c2=O)c1 | EC50 [2]: > 1000 nM; EC50 [3]: > 1000 nM; EC50 [4]: 30 nM |
| 26 | COC(=O)c1cccc(COc2c(-c3ccc(OCCOCCn4cc(CNc5ccccc5)nn4)cc3)oc3ccccc3c2=O)c1 | EC50 [2]: > 1000 nM; EC50 [3]: > 1000 nM; EC50 [4]: 44 nM |
| 16 | COC(=O)c1cccc(COc2c(-c3ccc(OCCOCCOCCn4cc(CN(C)Cc5ccccc5)nn4)cc3)oc3ccccc3c2=O)c1 | EC50 [2]: 830 nM; EC50 [3]: > 1000 nM; EC50 [4]: 28 nM |
| 160 | COC(=O)c1cccc(COc2c(-c3ccc(OCCOCCOCCn4cc(CCN5C(=O)c6ccccc6C5=O)nn4)cc3)oc3ccccc3c2=O)c1 | EC50 [2]: > 1000 nM; EC50 [3]: > 1000 nM |
| 52 | [N-]=[N+]=NCCOCCOCCOc1ccc(-c2oc3ccccc3c(=O)c2OCc2ccccc2)cc1 | – |
| 213 | [N-]=[N+]=NCCOc1ccc2c(=O)cc(-c3ccccc3)oc2c1 | – |
| 76 | COc1cccc(COc2c(-c3ccc(OCCOCCN=[N+]=[N-])cc3)oc3ccccc3c2=O)c1 | – |
| 169 | [N-]=[N+]=NCCOCCOc1cccc(-c2oc3ccccc3c(=O)c2OCc2ccccc2)c1 | – |
